Laboratory results published in patent US8609897B2, “Trifluoromethylsulfonamide gamma secretase inhibitor” (Merck Sharp & Dohme Corp., priority 2009, dated 2013).
Where two headings read alike, the source gives them in different places.

What was measured:
[1] = Example A: PK profile in Rhesus monkeys, 30 mg/kg PO single dose; assay type: in vivo; details: rhesus monkey, plasma
Text: (§1) Peak lowering of ˜46% was observed 24 hrs after each dose. […] Terminal phase pharmacokinetic characteristics of Example 1 in Rhesus monkey provide continuous inhibition over the course of one week achieving both an average as well as minimum reduction of CSF Aβ40 of >25%.

[2] = Pharmacokinetics in Beagle dogs; assay type: in vivo; details: Dog; for clearance / half-life / bioavailability: Beagle, plasma; for clearance: intravenous; for clearance / half-life / AUC (Norm)(0-x): 0.25 mg/kg; for bioavailability: 0.25 mg/kg IV or PO
Experimental: (§2) Pharmacokinetic parameters were determined in Sprague Dawley rats, Beagle dogs and Rhesus monkeys by dosing the compounds intravenously (IV) or orally (PO). A dose of 0.25 mg/kg was administered either IV or PO to each subject with a dosing solution of 0.25 mg/ml in a 30:70 v/v mixture of PEG400:40% Captisol®. Plasma samples were collected at 5 min. (IV only), 15 min., 30 min., 1 h, 2 h, 4 h, 6 h, 8 h, 24 h, 48 h, 72 h, 96 h, 120 h, 144 h, and 168 h. Samples were analyzed by LC-MS/MS (API5000™) to determine the concentration in plasma. Briefly, 50 μL plasma was precipitated with 200 μL acetonitrile containing an appropriate internal standard. Samples were filtered, 500 μL of water was added to each sample and 10 μL of this was injected on a C18 column (2.0 mm×30 mm, 3 μm particle size) and eluted using a gradient LC method with water containing 0.1% formic acid as the aqueous mobile phase, and acetonitrile containing 0.1% formic acid as the organic phase. Electrospray ionization with multiple reaction monitoring was used for MS/MS detection. Plasma concentration of the compounds was determined using a standard curve that was prepared similar to the samples in the respective matrix. Non-compartmental analysis was performed using Watson 7.2 to generate the PK parameters.

[3] = target: semi-purified γ-secretase; experiment: In vitro APP processing (C100Flag substrate, semi-purified γ-secretase, MESO Scale ELISA), mouse brain membranes; assay type: biochemical; details: in vitro assay
Experimental: (§3) In Vitro APP Processing (Assay Quatitates Aβ Analytes Generated from a Recombinant APPC100Flag Substrate Incubated with Semi-Purified γ-Secretase)
(§4) The effect of compounds on the abundance of Aβ40 and Aβ42 peptides generated from exogenous C100Flag substrate by semi-purified γ-secretase was determined by MESO Scale ELISA. Generation of signal in this MESO Scale assay requires an anti-amyloid monoclonal antibody (clone 408) conjugated with streptavidin to bind to a biotin-coated plate. Specific [Ru(bpy)3]2+-labeled monoclonal antibodies for either Aβ40 (G210) or Aβ42 (12F4) subsequently generate an electrochemiluminescence signal upon electrochemical stimulation. The assay was accomplished by incubating compound, C100Flag substrate and CHAPSO-solubilized P2 membranes from HeLa cells or brains of mouse, rat, or dog. The reaction was then transferred to two different biotinylated microplates for detection of either Aβ40 or Aβ42.

[4] = system: γ-secretase (APP processing), SH-SY5Y cells expressing amyloid β protein (SP4CT cells); experiment: APP processing, secreted Aβ40 and Aβ42 from SH-SY5Y (SP4CT) cells, AlphaLisa; details: cell based assay
Experimental: APP Processing (Assay Quantitates Secreted Aβ Analytes from Cell Lines):
The effect of compounds on the abundance of Aβ40 and Aβ42 peptides generated from SH-SY5Y cells expressing amyloid β protein (SP4CT cells) was determined by an AlphaLisa™ assay. Analogous to an ELISA assay, generation of signal in this AlphaLisa™ assay requires “donor” and “acceptor” beads to be brought in close proximity by specific antibody recognition of either Aβ40 or Aβ42 peptides. The assay was accomplished by removing media from compound-treated SP4CT cells to two different microplates, followed by the addition of donor beads conjugated with streptavidin binding a biotinylated anti-amyloid β monocolonal antibody (clone 408). Acceptor beads directly conjugated with anti-Aβ40 monoclonal antibody (G210) were added to one microplate and anti-Aβ42 monoclonal antibody (12F4) acceptor beads were added to the other. Abundance of Aβ40 and Aβ42 was directly proportional to the luminescent signal generated following excitation of donor beads by laser light.

[5] = Pharmacokinetics in Rhesus monkeys; assay type: in vivo; details: for AUC (Norm)(0-x) / half-life / clearance: 0.25 mg/kg; for half-life / bioavailability / clearance: rhesus monkey, plasma; for bioavailability: 0.25 mg/kg IV or PO; for clearance: intravenous
Experimental: as §2

[6] = target: semi-purified γ-secretase; experiment: In vitro APP processing (C100Flag substrate, semi-purified γ-secretase, MESO Scale ELISA), dog brain membranes; assay type: biochemical; details: in vitro assay
Experimental: as §3, §4

[7] = system: CSF Aβ40 and Aβ42; experiment: Example B: CSF Aβ40 and Aβ42 levels and tolerability in rhesus monkeys, once-weekly oral 30 mpk; assay type: in vivo; details: oral once-weekly 30 mpk
Experimental: Example 1 was administered orally to rhesus monkeys once-weekly at a dose of 30 mpk and levels of Aβ40 and Aβ42 in the cerebrospinal fluid (CSF) were monitored.

[8] = Pharmacokinetics in Sprague Dawley rats; assay type: in vivo; details: Rat; for AUC (Norm)(0-x) / clearance / half-life: 0.25 mg/kg; for clearance / half-life / bioavailability: Sprague Dawley, plasma; for clearance: intravenous; for bioavailability: 0.25 mg/kg IV or PO
Experimental: as §2

[9] = system: CSF Aβ40; experiment: Example A: CSF Aβ40 reduction and tolerability in Rhesus monkeys, 30 mg/kg PO, one week; assay type: in vivo
Text: as §1

[10] = system: gamma secretase-dependent cleavage of the Notch protein, HeLa cells; experiment: Notch processing, split-luciferase assay in HeLa cells; assay type: cell-based; details: ratio HeLa Notch to SY5Y Aβ40
Text: (§5) Notch Processing: (Assay Quantitates Notch Intracellular Domain Release in Cell Lines):
(§6) A “split-luciferase” assay is used to measure inhibition of gamma secretase-dependent cleavage of the Notch protein. In this assay, HeLa cells were made to express a Notch protein lacking its extracellular domain (NotchΔE) fused to an N-terminal fragment of luciferase. The same cells also expressed a C-terminal fragment of luciferase fused to the immunoglobulin J kappa recombination signal sequence binding protein (RBP). Upon NotchΔE cleavage by gamma secretase, a Notch intracellular domain (NICD)-N terminal luciferase protein is generated which translocates to the nucleus and binds the RBP-C terminal luciferase fusion, bringing two independently nonfunctional halves of luciferase together to form a functional luciferase enzyme. The activity of luciferase in these cells is directly proportional to the amount of gamma secretase-cleaved Notch. Luciferase activity is determined by the standard techniques of luciferin addition to lysed cells and measurement of total luminescence.

[11] = system: T1, gamma secretase-dependent cleavage of the Notch protein, HeLa cells; experiment: as above; assay type: cell-based; details: cell based assay, HeLa cells, NotchΔE split-luciferase
T1 construct: HeLa Notch; other: cell based assay, HeLa cells, NotchΔE split-luciferase
Text: as §5, §6

[12] = target: semi-purified γ-secretase; experiment: In vitro APP processing (C100Flag substrate, semi-purified γ-secretase, MESO Scale ELISA), rat brain membranes; assay type: biochemical; details: in vitro assay
Experimental: as §3, §4

[13] = Aβ40, read-out: Tissue autonomous Aβ40, Mouse
[14] = Aβ40, read-out: Tissue autonomous Aβ40, Dog
[15] = Aβ40, read-out: Tissue autonomous Aβ40, Rat

## O=S(=O)(N[C@H]1CC[C@@](c2cc(F)ccc2C(F)(F)F)(S(=O)(=O)c2ccc(C(F)(F)F)cc2)CC1)C(F)(F)F [Example 1, 1,1,1-trifluoro-N-(4-[5-fluoro-2-(trifluoromethyl)phenyl]-4-{[4-(trifluoromethyl)phenyl]sulfonyl}cyclohexyl)methanesulfonamide]
[1]; read-out: AUC (0-24)
  AUC(0-t): 138 µM·h
[1]; read-out: plasma t ½
  half-life: > 168 h
[2]
  clearance: 0.234 mL/min/kg
  half-life: 713 h
  bioavailability: 84%
  AUC (Norm)(0-x): 99 µM·kg·h/mg
[3]; [13]
  IC50: 2.4 nM
[4]; Aβ40, read-out: SY5Y Aβ40
  IC50: 1.4 ± 0.9 nM
[5]
  AUC (Norm)(0-x): 385 µM·kg·h/mg
  half-life: 228 h
  bioavailability: 84%
  clearance: 0.07 mL/min/kg
[6]; [14]
  IC50: 1.5 nM
[7]; over a 3 week period
  GI toxicity: no evidence of GI toxicity
  average reduction in CSF Aβ40 levels relative to vehicle-treated controls: approximately 40%
  average reduction in CSF Aβ42 levels relative to vehicle-treated controls: approximately 40%
[7]; study terminated after 3 weeks
  side-effects leading to study termination: respiratory side-effects unconnected with Notch signaling
[8]
  AUC (Norm)(0-x): 8.7 µM·kg·h/mg
  clearance: 3.4 mL/min/kg
  half-life: 126 h
  bioavailability: 64%
[9]; 24 hrs (day 1) to 144 hrs (day 6)
  minimum inhibition (CSF Aβ40): > 25%
[9]; 24 hrs after each dose
  Peak lowering of CSF Aβ40: ~46%
[9]; over a one week period (168 hrs; 7 days)
  average daily CSF Aβ40 reduction relative to baseline: ~35%
[9]; over the course of the study
  tolerability (unformed stool): no unformed stool or other tolerability issues
[10]
  Notch/Aβ40: 370
[11]
  IC50: 518 nM
[12]; [15]
  IC50: 1.4 nM

## O=S(=O)(N[C@H]1CC[C@@](c2cc(F)ccc2F)(S(=O)(=O)c2ccc(C(F)(F)F)cc2)CC1)C(F)(F)F [Example 62 from U.S. Pat. No. 6,890,956]
[2]
  clearance: 0.383 mL/min/kg
  half-life: 254 h
  bioavailability: 55%
  AUC (Norm)(0-x): 49.5 µM·kg·h/mg
[4]; Aβ40, read-out: SY5Y Aβ40
  IC50: 0.99 nM
[4]; Aβ42, read-out: SY5Y Aβ42
  IC50: 0.99 nM
[8]
  AUC (Norm)(0-x): 6.0 µM·kg·h/mg
  clearance: 5.9 mL/min/kg
  half-life: 101 h
  bioavailability: 116%
[10]
  Notch/Aβ40: 156
[11]
  IC50: 154 nM

## O=S(=O)(N[C@H]1CC[C@@](c2cc(F)ccc2F)(S(=O)(=O)c2ccc(Cl)cc2)CC1)C(F)(F)F [MRK-560]
[2]
  clearance: 4.7 mL/min/kg
  half-life: 18 h
  bioavailability: 14%
  AUC (Norm)(0-x): 1.1 µM·kg·h/mg
[3]; [13]
  IC50: 0.8 nM
[3]; Aβ42, read-out: Tissue autonomous Aβ42, Mouse
  IC50: 0.4 nM
[4]; Aβ40, read-out: SY5Y Aβ40
  IC50: 0.72 nM
[4]; Aβ42, read-out: SY5Y Aβ42
  IC50: 0.51 nM
[5]
  AUC (Norm)(0-x): 9.4 µM·kg·h/mg
  half-life: 12 h
  bioavailability: 23%
  clearance: 0.8 mL/min/kg
[6]; [14]
  IC50: 5.2 nM
[6]; Aβ42, read-out: Tissue autonomous Aβ42, Dog
  IC50: 1.3 nM
[8]
  clearance: 2.2 mL/min/kg
  half-life: 26 h
  bioavailability: 67%
[10]
  Notch/Aβ40: 155
[11]
  IC50: 112 nM
[12]; [15]
  IC50: 1 nM
[12]; Aβ42, read-out: Tissue autonomous Aβ42, Rat
  IC50: 0.4 nM
